Measurements as given in US20220213066A1, “SALTS OF A CLASS OF PYRIMIDINE COMPOUNDS, POLYMORPHS, AND PHARMACEUTICAL COMPOSITIONS THEREOF, PREAPRATION METHODS THEREFOR AND USES THEREOF” (INVENTISBIO CO., LTD., priority 2019, published 2022).
Where a name gives a salt, the structure may show the parent alone.

Assay: dynamic vapor absorption and desorption analysis (DVS)
Format: physicochemical
Settings: for weight gain under 80% relative humidity / hygroscopicity of the sample: DVS, 25° C.; for hygroscopicity of the sample: graded in words; for crystalline form of the sample after the DVS test: XRPD overlay before and after DVS test
Experimental: The instrument used in dynamic vapor absorption and desorption analysis (DVS) was DVS Intrinsic (SMS, UK). The sample was placed in the sample basket of the instrument for automatic weighing, then heated to 40° C., and dried under a nitrogen stream to a dm/dt of less than 0.002%. The measurement was started after the temperature was dropped to 25° C., The instrument parameters were as follows.
Time per step: 60 min Sample temperature: 25° C. Cycle: entire cycle
Data storage rate: 5 s Total flow rate: 200 sccm Total flow rate after the test: 200 sccm

Row | SMILES | weight gain under 80% relative humidity | hygroscopicity of the sample | crystalline form of the sample after the DVS test
1 | C=CC(=O)Nc1cc(Nc2nccc(-c3cn(CC(F)(F)F)c4ccccc34)n2)c(OC)cc1N(C)CCN(C)C [crystalline form I of succinate] | about 0.57% | slightly hygroscopic | does not change
2 | C=CC(=O)Nc1cc(Nc2nccc(-c3cn(CC(F)(F)F)c4ccccc34)n2)c(OC)cc1N(C)CCN(C)C [crystalline form III of hydrochloride] | about 1.86% | slightly hygroscopic | does not change
3 | C=CC(=O)Nc1cc(Nc2nccc(-c3cn(CC(F)(F)F)c4ccccc34)n2)c(OC)cc1N(C)CCN(C)C [crystalline form I of benzenesulfonate] | about 0.41% | slightly hygroscopic | does not change

Further lines, results first:

Row | weight gain under 80% relative humidity | hygroscopicity of the sample | crystalline form of the sample after the DVS test | SMILES
4 | about 0.61% | slightly hygroscopic | does not change | C=CC(=O)Nc1cc(Nc2nccc(-c3cn(CC(F)(F)F)c4ccccc34)n2)c(OC)cc1N(C)CCN(C)C [crystalline form I of phosphate]
5 | about 3.31% | hygroscopic | does not change | C=CC(=O)Nc1cc(Nc2nccc(-c3cn(CC(F)(F)F)c4ccccc34)n2)c(OC)cc1N(C)CCN(C)C [crystalline form I of sulfate]
6 | about 0.55% | slightly hygroscopic | does not change | C=CC(=O)Nc1cc(Nc2nccc(-c3cn(CC(F)(F)F)c4ccccc34)n2)c(OC)cc1N(C)CCN(C)C [crystalline form I of p-toluenesulfonate]
